The experiment concerns HT29 cells. In words: Inhibition of cell necrosis (CCK8 method), induced programmed necrosis of HT29 cells. In kind it is cell-based. The settings on record: Homo sapiens, HT-29; rescue from necrosis induced by TNF-α 20 ng/mL, AT-406 1 μM, Z-VAD-FMK 20 μM; 16-20 hours; CCK-8, OD 450 nm. How it is done:
Assay Example 2. Assay Method for Compounds Inhibiting Cell Necrosis (CCK8 Method)
In this assay example 2, under the condition of inducing programmed cell necrosis, different concentrations of the test compounds were added to test the IC50 of the rescue effect of the test compounds on the programmed necrosis.
• Compounds: Dissolved in DMSO to make a 10 mM solution; • TNF-α: The initial concentration was 100 μg/mL; • Z-VAD-FMK: Dissolved in DMSO to make a 10 mM solution; • AT-406: Dissolved in DMSO to make a 10 mM solution. I. Experimental Steps • 1) Compound dilution: All test compounds were dissolved in DMSO to prepare a 10 mM stock solution, and the first concentration gradient dilution of the test compounds was completed in DMSO. The gradient dilution factor was 4 times and 9 concentration gradients were made; A 40-fold overall dilution of all compounds was completed in the cell culture medium, and the resulting compound was 10× compound, which will be added to the wells of the 96-well plate containing cells, so that the final cell culture medium was 1× the designed final concentration. The general drug design is 9 concentration gradients, of which the highest final concentration is 25000 nM, the lowest concentration after 4-fold dilution of 9 concentrations is 0.38 nM, and the final concentration of DMSO in all wells is 0.25%. The compound dilution process is shown in FIG. 3. • 2) HT 29 cells in good growth condition were selected, trypsinized, the cells was collected by centrifugation, resuspended in McCOY's 5A complete medium (containing 10% FBS) and counted, and the number of cells and survival rate were recorded. • 3) Cells were inoculated to the 60 wells in the middle of the 96-well culture plate at a density of 12000 cells/80 μL/well, surrounding wells were filled with sterile water, and incubated overnight. • 4) 10 μL of the 10× compound diluted with the medium was added to the assay wells, 10 μL of McCOY's 5A complete medium containing 2.5% DMSO was added to the inducer-free wells and the control wells, mixed and shaked, and incubated for 30 minutes. • 5) Then 10 μL of inducer mixture (TNF-α, AT-406, Z-VAD-FMK with the final concentration of 20 ng/mL, 1 μM, 20 μM) was added into the assay wells and control wells. 10 μL McCOY's 5A complete medium was added to wells without inducer. Cells were cultured in an incubator with 5% CO2, at 37° C. • 6) After culturing for 16-20 hours, 10 μL of CCK-8 reagent was added to each well, and incubated for about 2 hours; • 7) The OD value was read at 450 nm on the multi-function plate reader. • 8) Data processing: Inhibition rate of necrosis (%)=100*(X−B)/(A−B) • A: The OD values of the wells without inducer (containing cells, CCK-8, without compound and inducer); • […]: OD values of assay wells (containing cells, CCK-8, compound, inducer); • B: OD values of control wells (containing cells, CCK-8, inducer, without compound). Then the value were imported into Graphpad Prism5 software for curve fitting and the IC50 values were calculated.
For orientation: Formazan colour is commonly taken as a measure of viable cells.

On to `CCc1cc(-c2ccnc(NC(=O)c3nnc(Cc4ccccc4)[nH]3)c2)c(OC)cn1` [Example 63, 5-benzyl-N-(2′-ethyl-5′-methoxy-[4,4′-bipyridin]-2-yl)-4H-1,2,4-triazole-3-carboxamide], for which the IC50 was in the range of 1000 to 10000 nM. The result for `Cc1ccc(OCCOC(C)(C)C)cc1-c1ccnc(NC(=O)c2nnc(Cc3ccccc3)[nH]2)c1` [Example 64, 5-benzyl-N-(4-(5-(2-(tert-butoxy)ethoxy)-2-methylphenyl)pyridin-2-yl)-4H-1,2,4-triazole-3-carboxamide] reads no more than 100 nM; that for `Cc1ccc(OC2CCOCC2)cc1-c1ccnc(NC(=O)c2nnc(Cc3ccccc3)[nH]2)c1` [Example 65, 5-benzyl-N-(4-(2-methyl-5-((tetrahydro-2H-pyran-4-yl)oxy)phenyl)pyridin-2-yl)-4H-1,2,4-triazole-3-carboxamide], no more than 100 nM. The result for `Cc1ccc(OCC2COC2)cc1-c1ccnc(NC(=O)c2nnc(Cc3ccccc3)[nH]2)c1` [Example 66, 5-benzyl-N-(4-(2-methyl-5-(oxetan-3-ylmethoxy)phenyl)pyridin-2-yl)-4H-1,2,4-triazole-3-carboxamide] reads no more than 100 nM; that for `Cc1ccc(OCC2CCOCC2)cc1-c1ccnc(NC(=O)c2nnc(Cc3ccccc3)[nH]2)c1` [Example 67, 5-benzyl-N-(4-(2-methyl-5-((tetrahydro-2H-pyran-4-yl)methoxy)phenyl)pyridin-2-yl)-4H-1,2,4-triazole-3-carboxamide], no more than 100 nM.

`Cc1ccc(OCCF)cc1-c1ccnc(NC(=O)c2nnc(Cc3ccccc3)[nH]2)c1` [Example 68, 5-benzyl-N-(4-(5-(2-fluoroethoxy)-2-methylphenyl)pyridin-2-yl)-4H-1,2,4-triazole-3-carboxamide]: the IC50 was 100 to 1000 nM. The result for `Cc1ccc(OCCC2CC2)cc1-c1ccnc(NC(=O)c2nnc(Cc3ccccc3)[nH]2)c1` [Example 69, 5-benzyl-N-(4-(5-(2-cyclopropylethoxy)-2-methylphenyl)pyridin-2-yl)-4H-1,2,4-triazole-3-carboxamide] reads no more than 100 nM; that for `Cc1ccc(OCCOCC(C)C)cc1-c1ccnc(NC(=O)c2nnc(Cc3ccccc3)[nH]2)c1` [Example 70, 5-benzyl-N-(4-(5-(2-isobutoxyethoxy)-2-methylphenyl)pyridin-2-yl)-4H-1,2,4-triazole-3-carboxamide], no more than 100 nM. The result for `Cc1ccc(OCCN2CCCC2=O)cc1-c1ccnc(NC(=O)c2nnc(Cc3ccccc3)[nH]2)c1` [Example 71, 5-benzyl-N-(4-(2-methyl-5-(2-(2-oxopyrrolidin-1-yl)ethoxy)phenyl)pyridin-2-yl)-4H-1,2,4-triazole-3-carboxamide] reads no more than 100 nM; that for `CSCCCOc1ccc(C)c(-c2ccnc(NC(=O)c3nnc(Cc4ccccc4)[nH]3)c2)c1` [Example 72, 5-benzyl-N-(4-(2-methyl-5-(3-(methylthio)propoxy)phenyl)pyridin-2-yl)-4H-1,2,4-triazole-3-carboxamide], no more than 100 nM.

In turn, `Cc1ccc(OCCCS(C)(=O)=O)cc1-c1ccnc(NC(=O)c2nnc(Cc3ccccc3)[nH]2)c1` [Example 73, 5-benzyl-N-(4-(2-methyl-5-(3-(methylsulfonyl)propoxy)phenyl)pyridin-2-yl)-4H-1,2,4-triazole-3-carboxamide] returned an IC50 of no more than 100 nM. With `CC(C)(C)OCCOc1ccc(C#N)c(-c2ccnc(NC(=O)c3nnc(Cc4ccccc4)[nH]3)c2)c1` [Example 74], the IC50 lay within 100 to 1000 nM. The result for `Cc1ccc(OCCOC(C)(C)C)cc1-c1ccnc(NC(=O)c2nnc(CC3CCCC3)[nH]2)c1` [Example 75, N-(4-(5-(2-(tert-butoxy)ethoxy)-2-methylphenyl)pyridin-2-yl)-5-(cyclopentylmethyl)-4H-1,2,4-triazole-3-carboxamide] reads no more than 100 nM. Consider `Cc1ccc(OCCOC(C)(C)C)cc1-c1ccnc(NC(=O)c2nnc(CC3CCCC3)o2)c1` [Example 76], for which the half-maximal inhibitory concentration (IC50) is greater than 10000 nM.

One may read the IC50 as the concentration at which inhibition is half-maximal. A high value points to lower potency.

The values above are taken from patent publication US12435060B2, “Acylamino bridged heterocyclic compound, and composition and application thereof” (BEIJING SCITECH-MQ PHARMACEUTICALS LIMITED, priority 2019, dated 2025).
